Measured values reported in a compilation of properties of binary mixtures (doi:10.1016/j.molliq.2020.114841).

Assay: xn = mol fraction of the nth substance listed
Conditions: 101.3 kPa

CS(C)=O + CCOCC[n+]1ccn(CCC#N)c1.O=S(=O)([N-]S(=O)(=O)C(F)(F)F)C(F)(F)F
x2 = 0
Conditions	electrical conductivity [S/m]	viscosity [mPa·s]
293.15 K	0.0006	2.48
303.15 K	0.0009	2.025
313.15 K	0.0012	1.619
323.15 K	0.0015	1.433

CS(C)=O + COCCOCCn1cc[n+](CCC#N)c1.O=S(=O)([N-]S(=O)(=O)C(F)(F)F)C(F)(F)F
x2 = 0
Conditions	electrical conductivity [S/m]	viscosity [mPa·s]
293.15 K	0.0006	2.479
303.15 K	0.0009	2.025
313.15 K	0.0012	1.619
323.15 K	0.0015	1.433

CCOCC[n+]1ccn(CCC#N)c1.O=S(=O)([N-]S(=O)(=O)C(F)(F)F)C(F)(F)F + CS(C)=O
Conditions	electrical conductivity, 293.15 K [S/m]	electrical conductivity, 303.15 K [S/m]	electrical conductivity, 313.15 K [S/m]	electrical conductivity, 323.15 K [S/m]	viscosity, 293.15 K [mPa·s]	viscosity, 303.15 K [mPa·s]	viscosity, 313.15 K [mPa·s]	viscosity, 323.15 K [mPa·s]
x1 = 0.0989	0.0011	0.0013	0.0016	–	8.21	5.53	4.312	–
x1 = 0.1981	0.004	0.0048	0.0061	–	10.18	7.07	5.24	–
x1 = 0.2776	0.0096	0.0117	0.0152	0.0204	16.76	11.64	8.48	6.42
x1 = 0.3971	0.0179	0.0218	0.0282	–	25.7	17	12.01	–
x1 = 0.5029	0.0284	0.0351	0.0457	–	40.9	28	18.99	–
x1 = 0.597	–	0.0477	0.063	0.0866	–	38.6	26.33	18.01
x1 = 0.721	0.0472	–	0.0763	–	72.2	–	28.66	–
x1 = 0.798	–	0.0985	0.13	0.188	–	57.8	36.8	28.6
x1 = 0.89	–	0.0843	0.119	0.165	–	124.2	78.2	56.6
x1 = 1	0.057	0.0705	0.0957	0.14	401	235.6	146.2	105

COCCOCCn1cc[n+](CCC#N)c1.O=S(=O)([N-]S(=O)(=O)C(F)(F)F)C(F)(F)F + CS(C)=O
Conditions	electrical conductivity, 293.15 K [S/m]	electrical conductivity, 303.15 K [S/m]	electrical conductivity, 313.15 K [S/m]	electrical conductivity, 323.15 K [S/m]	viscosity, 293.15 K [mPa·s]	viscosity, 303.15 K [mPa·s]	viscosity, 313.15 K [mPa·s]	viscosity, 323.15 K [mPa·s]
x1 = 0.0989	0.002	0.0023	0.0028	0.0034	6.1	4.244	3.145	2.453
x1 = 0.1981	–	0.0077	0.0094	–	–	5.65	4.14	–
x1 = 0.2776	0.0093	–	0.0144	0.0193	13.52	–	6.42	5
x1 = 0.3971	0.0202	0.0243	0.031	0.043	19.5	13.05	8.55	6.4
x1 = 0.5029	0.0321	–	0.0518	0.0698	39.8	–	16.92	12.64
x1 = 0.597	0.0411	0.051	0.0672	0.0919	53.9	33.04	22.38	16.15
x1 = 0.721	0.0589	0.0732	0.0977	0.134	64.3	36.5	24.89	17.98
x1 = 0.798	0.0885	0.111	–	–	90.8	49.7	–	–
x1 = 0.89	0.0746	–	–	0.175	145.2	–	–	37.5
x1 = 1	0.0654	0.0831	0.112	0.158	296	169	103.2	74.6
